Structures can show the parent of a compound that is named as a salt.
How the values were obtained:
[1] = opened beaker, room temperature, 4 days
Description: Form I may also be prepared by exposing a hygroscopic crystalline clopidogrel hydrobromide to air, preferably for at least about 24 hours. In a preferred embodiment, the clopidogrel hydrobromide exposed is Form II, discussed below.

[2] = pure crystalline hydrate, purity at least about 99% by HPLC
[3] = system: platelet aggregation; conditions: 75 mg base equivalent versus 325 mg aspirin; cited from earlier work
[4] = compared with aspirin; cited from earlier work

SMILES: COC(=O)[C@H](c1ccccc1Cl)N1CCc2sccc2C1 [Form II, clopidogrel hydrobromide]
- crystalline form after exposure to air [1]: giving clopidogrel hydrobromide form I

SMILES: COC(=O)[C@H](c1ccccc1Cl)N1CCc2sccc2C1 [clopidogrel hydrobromide hydrate]
- hygroscopicity [2]: only minor hygroscopicity

SMILES: COC(=O)[C@H](c1ccccc1Cl)N1CCc2sccc2C1 [clopidogrel, methyl (+)-(S)-∝-(o-chlorophenyl)-6,7-dihydrothieno[3,2-c]pyridine-5(4H)-acetate]
- effectiveness in blocking platelet aggregation versus aspirin [3]: more effective in blocking platelet aggregation than aspirin
- gastrointestinal bleeding versus aspirin [4]: much less gastrointestinal bleeding than aspirin

Reference: patent publication US20080306268A1, “Crystalline clopidogrel hydrobromide and processes for preparation thereof” (Teva Pharmaceuticals USA, Inc. for Barbados, priority 2004, published 2008)
